Experimental data reported in ChEMBL document CHEMBL4725267, “Design and synthesis of potent inhibitors of bc complex based on natural product neopeltolide” (Bioorg Med Chem Lett, 2020).

Assays:
Sus scrofa [1] = organism: Sus scrofa; assay: Inhibition of porcine heart Succinate-cytochrome c reductase complex 2 by measuring decrease in DCIP at 1 uM relative to control; assay type: tissue-based
[2] = (§1) Inhibition of porcine heart Succinate-cytochrome c reductase complex 2 by measuring decrease in DCIP at 10 uM relative to control; assay type: tissue-based, Sus scrofa
Sus scrofa [3] = organism: Sus scrofa; assay: as §1; assay type: tissue-based
[4] = Inhibition of porcine heart Succinate-cytochrome c reductase complex 2 by measuring decrease in DCIP; assay type: tissue-based, Sus scrofa
[5] = Inhibition of bovine heart mitochondrial cytochrome bc1 complex; assay type: mitochondria, Bos taurus, Mitochondria

Compound | inhibition (Sus scrofa [3]) | also measured
COC(=O)NC/C=C\c1nc(C(=O)Nc2cccc3c2ccn3Cc2ccccc2C)co1 |  | inhibition (Sus scrofa [1]): 65%
CO/C=C(/C(=O)OC)c1ccccc1Oc1cc(Oc2ccccc2C#N)ncn1 [AZOXYSTROBIN] |  | IC50 [2]: 700 nM
COC(=O)NC/C=C\c1nc(C(=O)OCc2cccc3c2c(Cl)cn3Cc2ccc(F)cc2)co1 | 46% | 
COC(=O)NC/C=C\c1nc(C(=O)OCc2cccc3c2c(Cl)cn3Cc2ccccc2Cl)co1 | 31% | 
C#CCn1cc(Cl)c2c(COC(=O)c3coc(/C=C\CNC(=O)OC)n3)cccc21 | 25% | 
COC(=O)NC/C=C\c1nc(C(=O)OCc2cccc3c2c(Cl)cn3Cc2cccc(Cl)c2)co1 | 23% | 
COC(=O)NC/C=C\c1nc(C(=O)OCc2cccc3[nH]cc(Cl)c23)co1 | 12% | 
COC(=O)NC/C=C\c1nc(C(=O)OCc2cccc3c2c(Cl)cn3Cc2ccccc2Br)co1 | 33% | 
COC(=O)NC/C=C\c1nc(C(=O)Nc2cccc3c2ccn3Cc2ccccc2F)co1 |  | IC50 [4]: 1340 nM
COC(=O)NC/C=C\c1nc(C(=O)OCc2cccc3c2c(Cl)cn3Cc2ccc(C)cc2)co1 | 11% | 
COC(=O)NC/C=C\c1nc(C(=O)OCc2cccc3c2c(Cl)cn3C)co1 | < 10% | 
COC(=O)NC/C=C\c1nc(C(=O)Nc2cccc3c2ccn3Cc2cccc(C)c2)co1 |  | IC50 [4]: 700 nM
COC(=O)NC/C=C\c1nc(C(=O)Nc2cccc3c2ccn3Cc2ccc(C)cc2)co1 |  | inhibition (Sus scrofa [1]): 55%
CCn1cc(Cl)c2c(COC(=O)c3coc(/C=C\CNC(=O)OC)n3)cccc21 | < 10% | 
COC(=O)NC/C=C\c1nc(C(=O)OCc2cccc3c2c(Cl)cn3Cc2ccccc2)co1 | 41% | 
COC(=O)NC/C=C\c1nc(C(=O)OCc2cccc3c2c(Cl)cn3Cc2ccc(F)cc2F)co1 | 46% | 
CCC[C@H]1C[C@@H](OC)C[C@H](C)C[C@@H]2C[C@@H](OC(=O)/C=C\CCc3coc(/C=C\CNC(=O)OC)n3)C[C@H](CC(=O)O1)O2 |  | IC50 [5]: 2 nM
COC(=O)NC/C=C\c1nc(C(=O)OCc2cccc3c2c(Cl)cn3Cc2ccccc2C)co1 | 47% | 
C=CCn1cc(Cl)c2c(COC(=O)c3coc(/C=C\CNC(=O)OC)n3)cccc21 | 21% | 
COC(=O)NC/C=C\c1nc(C(=O)OCc2cccc3c2c(Cl)cn3Cc2ccc(Cl)cc2)co1 | 31% | 
COC(=O)NC/C=C\c1nc(C(=O)OCc2cccc3c2c(Cl)cn3Cc2cccc(Br)c2)co1 | 34% | 
COC(=O)NC/C=C\c1nc(C(=O)OCc2cccc3c2c(Cl)cn3Cc2ccc(Br)cc2)co1 | 14% | 
CCCn1cc(Cl)c2c(COC(=O)c3coc(/C=C\CNC(=O)OC)n3)cccc21 | 24% | 
COC(=O)NC/C=C\c1nc(C(=O)OCc2cccc3c2c(Cl)cn3Cc2ccccc2F)co1 | 50% | 
COC(=O)NC/C=C\c1nc(C(=O)OCc2cccc3c2c(Cl)cn3Cc2cccc(C)c2)co1 | 49% | 
COC(=O)NC/C=C\c1nc(C(=O)Nc2cccc3c2ccn3Cc2cccc(F)c2)co1 |  | IC50 [4]: 1750 nM
COC(=O)NC/C=C\c1nc(C(=O)OCc2cccc3c2c(Cl)cn3Cc2cccc(F)c2)co1 | 32% | 
COC(=O)NC/C=C\c1nc(C(=O)Nc2cccc3c2ccn3Cc2ccc(F)cc2)co1 |  | IC50 [4]: 1460 nM
COC(=O)NC/C=C\c1nc(C(=O)OCc2cccc3c2c(Cl)cn3Cc2cc(C)cc(C)c2)co1 | 27% | 
